Source: paper PMC5466365 (Journal of the American Chemical Society, 2016)

Legend:
Assay type in all cases: biochemical
MeHNL [1] = molecular target: T1, MeHNL (Manihot esculenta, UniProt P52705); assay: benzaldehyde release, A280; details: 50 mM citrate pH 5.0
HbHNL [2] = molecular target: T2, HbHNL (Hevea brasiliensis, UniProt P52704); assay: benzaldehyde release, A280; details: 50 mM citrate pH 5.0
MeHNL [3] = molecular target: T1, MeHNL; details: 5 mM citrate phosphate pH 5
HbHNL [4] = molecular target: T2, HbHNL; details: 5 mM citrate phosphate pH 5

T1 sequence (P52705 2-258): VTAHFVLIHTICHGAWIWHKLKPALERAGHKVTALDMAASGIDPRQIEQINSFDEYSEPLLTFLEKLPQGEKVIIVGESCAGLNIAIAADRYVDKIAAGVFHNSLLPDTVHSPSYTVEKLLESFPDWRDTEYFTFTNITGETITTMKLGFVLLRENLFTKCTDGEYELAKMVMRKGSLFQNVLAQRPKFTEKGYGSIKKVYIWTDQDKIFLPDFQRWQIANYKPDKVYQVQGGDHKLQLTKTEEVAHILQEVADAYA
T2 sequence (P52704 whole entry): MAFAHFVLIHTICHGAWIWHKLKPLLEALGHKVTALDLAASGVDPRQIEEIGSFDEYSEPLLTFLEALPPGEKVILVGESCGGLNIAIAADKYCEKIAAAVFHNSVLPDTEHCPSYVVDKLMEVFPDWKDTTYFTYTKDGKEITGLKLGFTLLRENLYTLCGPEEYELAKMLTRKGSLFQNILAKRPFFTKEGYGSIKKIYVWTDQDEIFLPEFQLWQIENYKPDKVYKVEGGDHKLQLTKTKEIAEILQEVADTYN

Row | SMILES | benzaldehyde release, A280 (MeHNL [1]) | benzaldehyde release, A280 (HbHNL [2]) | HCN release, modified König reaction (MeHNL [3]) | HCN release, modified König reaction (HbHNL [4])
1 | N#CC(O)c1ccccc1 (racemic) [mandelonitrile] | They also efficiently cleaved their unnatural substrate mandelonitrile | They also efficiently cleaved their unnatural substrate mandelonitrile | – | –
2 | CC(C)(O)C#N [acetone cyanohydrin] | – | – | The best substrate is the natural one, acetone cyanohydrin | The best substrate is the natural one, acetone cyanohydrin
